Experimental data as given in patent US8076352B2, “Administration of carboline derivatives useful in the treatment of cancer and other diseases” (PTC Therapeutics, Inc., priority 2004, dated 2011).

system: hypoxia-inducible endogenous VEGF expression in HeLa cells; experiment: Hypoxia-inducible endogenous VEGF expression, VEGF ELISA of conditioned media (dose-response EC50); type: cell-based; conditions: HeLa cells under hypoxic conditions
In short: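 HeLa cells were cultured 24-48 h under hypoxia (1% O2, 5% CO2, balance N2) with or without compound. Conditioned-media VEGF protein was measured by ELISA against a standard curve. EC50 and CC50 come from percentage-inhibition curves over, e.g., seven concentrations, with maximal inhibition set at 100%.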

SMILES | EC50 [µM]
CS(=O)(=O)c1ccc(C2c3[nH]c4ccc(Cl)cc4c3CCN2C(=O)N2CCOCC2)cc1 (centres unmarked) [Compound 361] | 0.008 to 0.04

same assay, conditions: HeLa cells, hypoxic conditions (1% O2)

SMILES | EC50 [µM]
CC(C)c1ccc(C2c3[nH]c4ccc(Br)cc4c3CCN2C(=O)Oc2ccc(Cl)cc2)cc1 (centres unmarked) [Compound 572] | < 0.008

same assay, conditions: Homo sapiens, HeLa cells under hypoxic conditions

SMILES | EC50 [µM]
CCOC(=O)N1CCc2c([nH]c3ccc(Br)cc23)C1c1cccc(Br)c1 (centres unmarked) [Compound 44] | < 0.008
COc1ccc(C2NC(C(=O)N3CCOCC3)Cc3c2[nH]c2ccc(Br)cc32)cc1 (centres unmarked) [Compound 247] | > 1
O=C(OCCCl)N1CCc2c([nH]c3ccc(Cl)cc23)C1c1cccc(F)c1 (centres unmarked) [Compound 116] | 0.008 to 0.04
c1ccc(COc2ccc3[nH]c4c(c3c2)CCNC4c2ccoc2)cc1 (centres unmarked) [Compound 311] | > 1
COC(=O)c1ccc(C2c3[nH]c4ccc(Cl)cc4c3CCN2C(=O)Oc2ccc(F)cc2)cc1 (centres unmarked) [Compound 395] | < 0.008
Clc1cccc(C2NCCc3c2[nH]c2ccc(Br)cc32)c1Cl (centres unmarked) [Compound 151] | 0.04 to 0.2
FC(F)(F)c1ccc(C2NCCc3c2[nH]c2ccc(Cl)cc32)cc1 (centres unmarked) [Compound 159] | 0.04 to 0.2
COC(=O)CCC(=O)N1CCc2c([nH]c3ccc(Cl)cc23)C1c1ccc(OC)cc1 (centres unmarked) [Compound 369] | 0.2 to 1
FC(F)(F)c1cccc(C2NCCc3c2[nH]c2ccc(Cl)cc32)c1 (centres unmarked) [Compound 299] | > 1
CCOC(=O)Oc1ccc(C2c3[nH]c4ccc(Cl)cc4c3CCN2C(=O)OCC)cc1 (centres unmarked) [Compound 136] | 0.04 to 0.2
CCCOC(=O)N1CCc2c([nH]c3ccc(Cl)cc23)C1c1cccc(F)c1 (centres unmarked) [Compound 75] | 0.008 to 0.04
COc1ccc(C2c3[nH]c4ccc(F)cc4c3CCN2C(=O)NC2CCCCC2)cc1 (centres unmarked) [Compound 283] | > 1
CCOC(=O)N1CCc2c([nH]c3ccc(Cl)cc23)C1C1CCCCC1 (centres unmarked) [Compound 145] | 0.04 to 0.2
CCC(C)NC(=S)N1CCc2c([nH]c3ccc(Cl)cc23)C1c1ccc(C(C)C)cc1 (centres unmarked) [Compound 336] | 0.2 to 1
Clc1ccc(C2NCCc3c2[nH]c2ccc(Br)cc32)cc1 (centres unmarked) [Compound 181] | 0.2 to 1
COC(=O)N1CCc2c([nH]c3ccc(Cl)cc23)C1c1cccc(F)c1F (centres unmarked) [Compound 53] | 0.008 to 0.04
CCOC(=O)N1CCc2c([nH]c3ccc(Br)cc23)C1c1ccc(F)c(F)c1 (centres unmarked) [Compound 78] | 0.008 to 0.04
Cc1cccc2c3c([nH]c12)C(c1cccc(Br)c1)NCC3 (centres unmarked) [Compound 305] | > 1
CCOC(=O)N1CCc2c([nH]c3ccc(Cl)cc23)C1c1ccccc1 (centres unmarked) [Compound 38] | < 0.008
CCNC(=O)N1CCc2c([nH]c3ccc(Cl)cc23)C1c1ccc(OCc2ccccc2)cc1 (centres unmarked) [Compound 221] | 0.2 to 1

SMILES | EC50 [µM]
O=C(Oc1ccc(Cl)cc1)N1CCc2c([nH]c3ccc(Cl)cc23)C1c1ccc(S(=O)(=O)N2CCOCC2)cc1 (centres unmarked) [Compound 346] | 0.008 to 0.04
Cc1cccc(C2NCCc3c2[nH]c2ccc(Cl)cc32)c1 (centres unmarked) [Compound 286] | > 1
Brc1ccc2[nH]c3c(c2c1)CCNC3c1ccccc1 (centres unmarked) [Compound 174] | 0.2 to 1
Clc1ccc(C2NCCc3c2[nH]c2ccc(Cl)cc32)c(Cl)c1 (centres unmarked) [Compound 124] | 0.04 to 0.2
CCOC(=O)N1CCc2c([nH]c3ccc(Cl)cc23)C1c1ccc(F)cc1 (centres unmarked) [Compound 23] | < 0.008
Clc1ccc2[nH]c3c(c2c1)CCNC3c1ccccc1 (centres unmarked) [Compound 216] | 0.2 to 1
Clc1ccc2[nH]c3c(c2c1)CCNC3c1ccc(OCc2ccccc2)cc1 (centres unmarked) [Compound 212] | 0.2 to 1
COc1ccc(C2NC(C(=O)NC3CCCCC3)Cc3c2[nH]c2ccc(Br)cc32)cc1 (centres unmarked) [Compound 245] | > 1
COc1ccc(C2c3[nH]c4ccc(Cl)cc4c3CCN2C(=O)Oc2ccc(C)cc2)cc1 (centres unmarked) [Compound 17] | < 0.008
CCOC(=O)N1CCc2c([nH]c3ccc(Br)cc23)C1Cc1ccccc1 (centres unmarked) [Compound 211] | 0.2 to 1
ON1CCc2c([nH]c3ccc(Br)cc23)C1c1ccccc1 (centres unmarked) [Compound 138] | 0.04 to 0.2
CCCOC(=O)N1CCc2c([nH]c3ccc(Cl)cc23)C1c1ccccc1 (centres unmarked) [Compound 94] | 0.008 to 0.04
CC(C)(C)OC(=O)N1CCc2c([nH]c3ccc(Cl)cc23)C1c1ccc2c(c1)OCO2 (centres unmarked) [Compound 362] | < 0.008
COc1ccc(C2c3[nH]c4ccc(Cl)cc4c3CCN2C(=O)NCCCl)cc1 (centres unmarked) [Compound 217] | 0.2 to 1
Clc1ccc2[nH]c3c(c2c1)CCN(Cc1ccccc1)C3c1cc2c(cc1Cl)OCO2 (centres unmarked) [Compound 274] | > 1
CCOC(=O)N1CCc2c([nH]c3ccc(Cl)cc23)C1c1cc(F)ccc1F (centres unmarked) [Compound 82] | 0.008 to 0.04
CCCOC(=O)N1CCc2c([nH]c3ccc(Cl)cc23)C1c1ccc(C#N)cc1 (centres unmarked) [Compound 71] | 0.008 to 0.04
FC(F)(F)c1cccc(C2NCCc3c2[nH]c2ccc(Br)cc32)c1 (centres unmarked) [Compound 207] | 0.2 to 1
ON1CCc2c([nH]c3ccc(Br)cc23)C1c1cccc(F)c1F (centres unmarked) [Compound 73] | 0.008 to 0.04
CCOC(=O)N1CCc2c([nH]c3ccc(Cl)cc23)C1c1ccc(F)cc1F (centres unmarked) [Compound 21] | < 0.008

same assay, conditions: Homo sapiens, HeLa cells, hypoxic conditions (1% O2)

SMILES | EC50 [µM]
O=C(Oc1ccc(Cl)cc1)N1CCc2c([nH]c3ccc(Cl)cc23)C1c1ccc(OCCCCN2CCCCC2)cc1 (centres unmarked) [Compound 703] | 0.008 to 0.04
COCCOCCOc1ccc(C2c3[nH]c4ccc(Cl)cc4c3CCN2C(=O)Oc2ccc(OC)cc2)cc1 (centres unmarked) [Compound 678] | 0.04 to 0.2
O=C(Oc1ccc(Cl)cc1)N1CCc2c([nH]c3ccc(Cl)cc23)C1c1ccc(OCCCCCCN2CCCCC2)cc1 (centres unmarked) [Compound 787] | < 0.008
O=C(Oc1ccccc1Cl)N1CCc2c([nH]c3ccc(Cl)cc23)C1c1ccc(OCC(O)CO)cc1 (centres unmarked) [Compound 628] | 0.04 to 0.2
CCOC(=O)N1CCc2c([nH]c3ccc(Cl)cc23)C1CC(C)SC (centres unmarked) [Compound 442] | 0.008 to 0.04
CN(C)CCCOc1ccc(C2c3[nH]c4ccc(Cl)cc4c3CCN2C(=O)Oc2ccccc2)cc1 (centres unmarked) [Compound 493] | 0.04 to 0.2
CCOC(=O)N1CCc2c([nH]c3ccc(Cl)cc23)C1c1ccc(C(=O)N(C)CCCN(C)C)cc1 (centres unmarked) [Compound 558] | 0.2 to 1
CCOC(=O)N1CCc2c([nH]c3ccc(Cl)cc23)C1C(C)Cc1ccc(C(C)(C)C)cc1 (centres unmarked) [Compound 528] | 0.2 to 1
O=C(Oc1ccc(Cl)cc1)N1CCc2c([nH]c3ccc(Cl)cc23)C1c1ccc(OCCCCN2CCCC2)cc1 (centres unmarked) [Compound 698] | 0.008 to 0.04
CCOC(=O)N1CCc2c([nH]c3ccc(Cl)cc23)C1C(C)Cc1ccc2c(c1)OCO2 (centres unmarked) [Compound 553] | 0.2 to 1
COc1ccc(C2c3[nH]c4ccc(OC)cc4c3CCN2C(=O)Oc2ccc(Cl)cc2)cc1 (centres unmarked) [Compound 614] | 0.2 to 1
CCOC(=O)N1CCc2c([nH]c3ccc(Cl)cc23)C1c1cccc(C(=O)NC)c1 (centres unmarked) [Compound 524] | 0.2 to 1
O=C(Oc1ccc(F)cc1)N1CCc2c([nH]c3ccc(Cl)cc23)C1c1ccc(OCCCCN2CCCC2)cc1 (centres unmarked) [Compound 736] | < 0.008
O=C(Oc1ccc(Cl)cc1)N1CCc2c([nH]c3ccc(Cl)cc23)C1c1ccc(OCCCN2CCCC2)cc1 (centres unmarked) [Compound 429] | < 0.008
CC(C)C1NCCc2c1[nH]c1ccc(Cl)cc21 (centres unmarked) [Compound 477] | 0.04 to 0.2
C=CCOc1ccc(C2c3[nH]c4ccc(Cl)cc4c3CCN2C(=O)OCc2ccccc2)cc1 (centres unmarked) [Compound 412] | < 0.008
COCCOCCOc1ccc(C2c3[nH]c4ccc(Cl)cc4c3CCN2C(=O)Oc2ccc([N+](=O)[O-])cc2)cc1 (centres unmarked) [Compound 681] | 0.008 to 0.04
CCOC(=O)N1CCc2c([nH]c3ccc(Cl)cc23)C1CC(C)(C)C (centres unmarked) [Compound 486] | 0.04 to 0.2
O=C(Oc1ccc(Cl)cc1)N1CCc2c([nH]c3ccc(Cl)cc23)C1c1ccc(F)cc1 (centres unmarked) [Compound 444] | 0.008 to 0.04
CCOC(=O)N1CCc2c([nH]c3ccc(Br)cc23)C1c1ccc(C(=O)N2CCCN(C)CC2)cc1 (centres unmarked) [Compound 484] | 0.04 to 0.2
CCOC(=O)N1CCc2c([nH]c3ccc(Br)cc23)C1c1ccc(C(=O)N2CCN(C)CC2)cc1 (centres unmarked) [Compound 478] | 0.04 to 0.2
CCOC(=O)N1CCc2c([nH]c3ccc(Cl)cc23)C1c1ccc(C(=O)N(C)CCN(C)C)cc1 (centres unmarked) [Compound 563] | > 1
O=C(Oc1ccc(Cl)cc1)N1CCc2c([nH]c3ccc(Br)cc23)C1c1ccc(C(F)(F)F)cc1 (centres unmarked) [Compound 405] | < 0.008
CCOC(=O)N1CCc2c([nH]c3ccc(Cl)cc23)C1c1ccsc1 (centres unmarked) [Compound 513] | 0.04 to 0.2
CCOC(=O)N1CCc2c([nH]c3ccc(Cl)cc23)C1c1ccc(C(=O)NCCCN2CCCC2=O)cc1 (centres unmarked) [Compound 512] | 0.04 to 0.2
O=C(Oc1ccc(F)cc1)N1CCc2c([nH]c3ccc(Cl)cc23)C1c1ccc(OCCCCCCN2CCOCC2)cc1 (centres unmarked) [Compound 776] | < 0.008

same assay, conditions: Homo sapiens, HeLa cells, hypoxic conditions (1% O2, 5% CO2)

SMILES | EC50 [µM]
COc1ccc(OC(=O)N2CCc3c([nH]c4ccc(Cl)cc34)C2c2ccc(OCC3CCCN(C)C3)cc2)cc1 (centres unmarked) [Compound 981] | 0.04 to 0.2
O=C(Oc1ccc(F)cc1)N1CCc2c([nH]c3ccc(Cl)cc23)C1c1ccc(OCCn2ccnn2)cc1 (centres unmarked) [Compound 833] | 0.04 to 0.2
O=C(Oc1ccc(F)cc1)N1CCc2c([nH]c3ccc(Cl)cc23)C1c1ccc(OCC(O)Cn2ccnc2)cc1 (centres unmarked) [Compound 922] | < 0.008
O=C(Oc1ccc(F)cc1)N1CCc2c([nH]c3ccc(Cl)cc23)C1c1ccc(OCCNc2nccs2)cc1 (centres unmarked) [#837] | < 0.008
CC(C)(C)OC(=O)N1CCC(COc2ccc(C3c4[nH]c5ccc(Cl)cc5c4CCN3C(=O)Oc3ccc(Cl)cc3)cc2)CC1 (centres unmarked) [Compound 845] | 0.04 to 0.2
CN1CCN(CC(O)COc2ccc(C3c4[nH]c5ccc(Cl)cc5c4CCN3C(=O)Oc3ccc(F)cc3)cc2)CC1 (centres unmarked) [Compound 963] | 0.008 to 0.04
COCCN(C)CCCOc1ccc(C2c3[nH]c4ccc(Cl)cc4c3CCN2C(=O)Oc2ccc(Cl)cc2)cc1 (centres unmarked) [Compound 908] | < 0.008
O=C(Oc1ccc(Cl)cc1)N1CCc2c([nH]c3ccc(Cl)cc23)C1c1ccc(OCCNc2cccnc2)cc1 (centres unmarked) [#843] | < 0.008
CN1CCCC(COc2ccc(C3c4[nH]c5ccc(Cl)cc5c4CCN3C(=O)Oc3ccccc3)cc2)C1 (centres unmarked) [Compound 952] | 0.008 to 0.04
